Results taken from patent US8952024B2, “Herbicidal pyrimidone derivatives” (E I du Pont de Nemours and Company, priority 2009, dated 2015).

Experiments:
[1] = system: windgrass (Apera spica-venti); experiment: Test C plant response; assay type: in vivo; conditions: Preemergence, scale 0 to 100
[2] = system: Russian thistle (Salsola iberica); experiment: Test C plant response; assay type: in vivo; conditions: Preemergence, scale 0 to 100

Structure (SMILES): O=C1CCCC(O)=C1C(=O)c1cnc(-c2ccccc2)n(-c2ccccc2)c1=O [Compound 2, 5-[(2-hydroxy-6-oxo-1-cyclohexen-1-yl)carbonyl]-2,3-diphenyl-4(3H)-pyrimidinone]
- Plant response rating: Windgrass ([1]; 62 g ai/ha): 25
- Plant response rating: Windgrass ([1]; 125 g ai/ha): 25
- Plant response rating: Windgrass ([1]; 16 g ai/ha): 0
- Plant response rating: Windgrass ([1]; 31 g ai/ha): 15
- Plant response rating: Russian Thistle ([2]; 62 g ai/ha): 0
- Plant response rating: Russian Thistle ([2]; 16 g ai/ha): 0
- Plant response rating: Russian Thistle ([2]; 31 g ai/ha): 0
